Data published in patent USRE47084E1, “Oral medicinal product with modified release of at least one active principle in multimicrocapsular form” (FLAMEL IRELAND LIMITED, priority 2003, dated 2018).
Converted amounts (≈) assume the structure as drawn.

Assay: Solubility of the active principles
Format: physicochemical

Row | solubility [µg/mL] | Structure (SMILES)
1 | 300 (≈ 1260 µM) | O=C1CN(/N=C/c2ccc([N+](=O)[O-])o2)C(=O)N1 [Nitrofurantoin]
2 | 10000 (≈ 44400 µM) | Nc1nc2c(ncn2COCCO)c(=O)[nH]1 [Acyclovir]
3 | 20 (≈ 48 µM) | CC(=O)S[C@@H]1CC2=CC(=O)CC[C@]2(C)[C@H]2CC[C@@]3(C)[C@@H](CC[C@@]34CCC(=O)O4)[C@H]12 [Spironolactone]
4 | 50 (≈ 135 µM) | Cc1c(OCC(F)(F)F)ccnc1C[S+]([O-])c1nc2ccccc2[nH]1 (stereo not shown) [Lansoprazole]
